The values that follow come from the RepoRT retention time repository (doi:10.1021/acs.analchem.2c02893).

This data set is described as follows: RP, Thermo Scientific Acclaim RSLC 120 C18, 100 × 2.1 mm, 2.2 µm, 30 °C, 0.2 mL/min, estimated dead time 1.1 min; A: 90% water + 10% methanol + 0.01% formic acid + 5 mM ammonium formate, pH 3.61; B: methanol + 0.01% formic acid + 5 mM ammonium formate, pH 3.61; gradient (min/%B) 0/1 1/1 2/39 13/99.9 15/99.9 15.1/1 20.1/1. Conditions: stereoisomer not certain.

For the compound `CCCCCn1cc(C(=O)c2cccc3ccccc23)c2cccc(O)c21` [JWH-018-M-7-OH-Ind], the LC retention time was 11.8 min.
With `CC(O)CCCn1cc(C(=O)c2cccc3ccccc23)c2ccccc21` (stereo not drawn) [JWH-018-M-N-4-OH-Pentyl] the figure was 10.1 min.
Then `O=C(c1cccc2ccccc12)c1cn(CCCCCO)c2ccccc12` [JWH-018-M-N-5-OH-Pentyl], with 10 min; and `O=C(O)CCCCn1cc(C(=O)c2cccc3ccccc23)c2ccccc21` [JWH-018-M-N-Pentanoic acid], with 9.71 min.
Turning to `CCCCCn1cc(C(=O)c2cccc3ccccc23)c2ccccc21` [JWH-018], the LC retention time was 12.4 min.
Then `CCCCCCn1cc(C(=O)c2cccc3ccccc23)c2ccccc21` [JWH-019], with 12.9 min; and `CCCCCCCn1cc(C(=O)c2cccc3ccccc23)c2ccccc21` [JWH-020], with 13.4 min; and `CCCCn1cc(C(=O)c2cccc3ccc(C)cc23)c2ccccc21` [JWH-073-2-Methyl], with 12.3 min.
On to `CCCCn1cc(C(=O)c2ccc(C)c3ccccc23)c2ccccc21` [JWH-073-4-Methyl], for which the LC retention time was 12.4 min.
On to `CCCCn1c(O)c(C(=O)c2cccc3ccccc23)c2ccccc21` [JWH-073-M-2-OH-Ind], for which the LC retention time is 13.5 min.
Then `CC(O)CCn1cc(C(=O)c2cccc3ccccc23)c2ccccc21` (stereo not drawn) [JWH-073-M-3-OH-Butyl], with 9.91 min; and `O=C(c1cccc2ccccc12)c1cn(CCCCO)c2ccccc12` [JWH-073-M-4-OH-Butyl], with 9.56 min.
With `CCCCn1cc(C(=O)c2cccc3ccccc23)c2c(O)cccc21` [JWH-073-M-4-OH-Ind] the figure was 12 min; with `CCCCn1cc(C(=O)c2cccc3ccccc23)c2cc(O)ccc21` [JWH-073-M-5-OH-Ind], 11.3 min.
Then `CCCCn1cc(C(=O)c2cccc3ccccc23)c2ccc(O)cc21` [JWH-073-M-6-OH-Ind], with 10.6 min; and `CCCCn1cc(C(=O)c2cccc3ccccc23)c2cccc(O)c21` [JWH-073-M-7-OH-Ind], with 11.2 min; and `O=C(O)CCCn1cc(C(=O)c2cccc3ccccc23)c2ccccc21` [JWH-073-M-N-Butanoic acid], with 9.33 min.
For the compound `CCCCn1cc(C(=O)c2cccc3ccccc23)c2ccccc21` [JWH-073], the LC retention time was 11.9 min.
Then `CCCCCn1cc(C(=O)c2ccc(OC)c3ccccc23)c2ccccc21` [JWH-081], with 12.7 min.
Regarding `Cc1ccc(C(=O)c2cn(CCCCCO)c3ccccc23)c2ccccc12` [JWH-122-M-N-5-OH-Pentyl], the LC retention time is 10.6 min.
Then `CCCCCn1cc(C(=O)c2ccc(C)c3ccccc23)c2ccccc21` [JWH-122], with 12.9 min; and `CCCCCCn1cc(C(=O)c2cccc3ccccc23)cc1-c1ccccc1` [JWH-147], with 13.3 min; and `CCCc1ccc(C(=O)c2cn(CCC)c3ccccc23)c2ccccc12` [JWH-180], with 12.7 min.
Regarding `O=C(c1cccc2ccccc12)c1cn(CCN2CCOCC2)c2cccc(O)c12` [JWH-200-M-4-OH-Ind], the LC retention time is 10.1 min.
With `O=C(c1cccc2ccccc12)c1cn(CCN2CCOCC2)c2ccccc12` [JWH-200] the figure was 9.88 min; with `CCCCCn1cc(C(=O)Cc2ccc(OC)cc2)c2ccccc21` [JWH-201], 11.6 min.
Then `CCCCCn1cc(C(=O)Cc2ccccc2Cl)c2ccccc21` [JWH-203], with 12.2 min.
Then `CCCCCn1cc(C(=O)c2ccc(CC)c3ccccc23)c2ccccc21` [JWH-210], with 13.2 min.
As to `CCCCCn1cc(C(=O)Cc2ccccc2OC)c2ccccc21` [JWH-250], the LC retention time was 11.8 min.
Then `CCCCCn1cc(C(=O)Cc2ccccc2C)c2ccccc21` [JWH-251], with 12.2 min; and `CCCCCn1cc(C(=O)Cc2cccc(OC)c2)c2ccccc21` [JWH-302], with 11.6 min; and `CCCCCn1cc(C(=O)c2cccc3ccccc23)cc1-c1ccccc1F` [JWH-307], with 12.8 min.
Then `CCCCCn1cc(C(=O)c2cccc3ccccc23)cc1-c1cccc(F)c1` [JWH-368], with 13 min; and `CCCCCn1cc(C(=O)c2cccc3ccccc23)cc1-c1ccccc1C` [JWH-370], with 13.4 min; and `CCCCCn1cc(C(=O)c2ccc(Br)c3ccccc23)c2ccccc21` [JWH-387], with 13.4 min.
Then `CCCCCn1cc(C(=O)c2ccc(Cl)c3ccccc23)c2ccccc21` [JWH-398], with 13.3 min; and `O=C(c1ccc(F)c2ccccc12)c1cn(CCCCCF)c2ccccc12` [JWH-412-5F. F2201], with 11.6 min; and `CCCCCn1cc(C(=O)c2ccc(F)c3ccccc23)c2ccccc21` [JWH-412], with 12.8 min.
In the case of `COC1=CC(=O)OC(C=Cc2ccccc2)C1` (stereo not drawn) [Kavain], the LC retention time is 8.32 min.
Then `CNC1(c2ccccc2Cl)CCCCC1=O` (stereo not drawn) [Ketamine], with 4.61 min.
With `CC1=CC(=O)N2CC(=O)N(C)c3ccc(Cl)cc3C2(c2ccccc2)O1` (stereo not drawn) [Ketazolam] the figure was 9.79 min; with `CCC(=O)C1(c2cccc(O)c2)CCN(C)CC1` [Ketobemidone], 4.26 min.
With `CC(=O)N1CCN(c2ccc(OCC3COC(Cn4ccnc4)(c4ccc(Cl)cc4Cl)O3)cc2)CC1` (stereo not drawn) [Ketoconazole] the figure was 9.4 min; with `CC(C(=O)O)c1cccc(C(=O)c2ccccc2)c1` (stereo not drawn) [Ketoprofen], 8.53 min.
Take `O=C(c1ccccc1)c1ccc2n1CCC2C(=O)O` (stereo not drawn) [Ketorolac]: the LC retention time was 6.94 min.
Then `CN1CCC(=C2c3ccccc3CC(=O)c3sccc32)CC1` [Ketotifen], with 5.54 min.
With `CON=C(C(=O)OC)c1ccccc1COc1ccccc1C` [Kresoxim-methyl] the figure was 10.8 min.
With `N[C@@H](Cc1cc(I)c(Oc2cc(I)c(O)c(I)c2)c(I)c1)C(=O)O` [L-Thyroxine] the figure was 9.39 min.
Take `CCN(CC)C(=O)C1C=C2c3cccc4[nH]cc(c34)CC2NC1` (stereo not drawn) [LSD-Nor]: the LC retention time was 5.56 min.
With `CC(CCc1ccccc1)NCC(O)c1ccc(O)c(C(N)=O)c1` (stereo not drawn) [Labetalol] the figure was 5.74 min.
Then `CCOC(=O)C(C)OC(=O)c1cc(Oc2ccc(C(F)(F)F)cc2Cl)ccc1[N+](=O)[O-]` (stereo not drawn) [Lactofen], with 12.2 min.
Then `Cc1c(OCC(F)(F)F)ccnc1CS(=O)c1nc2ccccc2[nH]1` (stereo not drawn) [Lansoprazole], with 8.38 min.
For the compound `COc1ccc(CC2c3cc(OC)c(OC)cc3CCN2C)cc1OC` (stereo not drawn) [Laudanosine], the LC retention time was 4.71 min.
With `CCCCCCCCCCCC(=O)NCCC[N+](C)(C)CC(=O)O` [Lauramidopropylbetaine] the figure was 13.1 min; with `CCCCCCCCCCCC(=O)NCC(C)O` (stereo not drawn) [Lauric isopropanolamide], 12.1 min.
With `CCCCCCCCCCCC(=O)N(CCO)CCO` [Lauryl diethanolamide] the figure was 11.7 min; with `O=c1[nH]c2c(c(=O)n1C1CCCCC1)CCC2` [Lenacil], 8.27 min; with `COP(=S)(Oc1cc(Cl)c(Br)cc1Cl)c1ccccc1` (stereo not drawn) [Leptophos], 13.8 min.
Then `COC(=O)C1=C(C)NC(C)=C(C(=O)OC(C)(C)CN(C)CCC(c2ccccc2)c2ccccc2)C1c1cccc([N+](=O)[O-])c1` (stereo not drawn) [Lercanidipine], with 11.1 min.
With `CCCCOCCOCCSC#N` [Lethane 384], the LC retention time is 8.12 min.
Consider `CN(C)c1ccc(C(c2ccccc2)c2ccc(N(C)C)cc2)cc1` [Leuco malachite green (LMG)], for which the LC retention time was 13.7 min.
With `c1ccc(C2CN3CCSC3=N2)cc1` (stereo not drawn) [Levamisol] the figure was 3.68 min.
With `CC(C)(C)NCC(O)COc1cccc2c1CCCC2=O` (stereo not drawn) [Levobunolol] the figure was 4.84 min.
Then `CC1CN(C2CCC(C#N)(c3ccc(F)cc3)CC2)CCC1(C(=O)O)c1ccccc1` (stereo not drawn) [Levocabastine], with 6.95 min.
For `CNCC(C)CN1c2ccccc2Sc2ccc(OC)cc21` (stereo not drawn) [Levomepromazine-Nor], the LC retention time was 8.33 min.
Then `COc1ccc2c(c1)N(CC(C)CN(C)C)c1ccccc1S2` (stereo not drawn) [Levomepromazine], with 8.14 min; and `CNC(C)CC1CCCCC1` (stereo not drawn) [Levopropylhexedrine], with 5.74 min.
In the case of `CC[N+]([O-])(CC)CC(=O)Nc1c(C)cccc1C` [Lidocaine-N-oxide], the LC retention time was 5.34 min.
With `CC#CCn1c(N2CCCC(N)C2)nc2c1c(=O)n(Cc1nc(C)c3ccccc3n1)c(=O)n2C` (stereo not drawn) [Linagliptin] the figure was 6.01 min; with `CCCC1CC(C(=O)NC(C(C)O)C2OC(SC)C(O)C(O)C2O)N(C)C1` (stereo not drawn) [Lincomycin], 4.08 min.
Consider `CC(=O)NCC1CN(c2ccc(N3CCOCC3)c(F)c2)C(=O)O1` (stereo not drawn) [Linezolid], for which the LC retention time was 5.56 min.
On to `CON(C)C(=O)Nc1ccc(Cl)c(Cl)c1` [Linuron], for which the LC retention time was 9.3 min.
For the compound `NCCCCC(NC(CCc1ccccc1)C(=O)O)C(=O)N1CCCC1C(=O)O` (stereo not drawn) [Lisinopril], the LC retention time was 3.98 min.
